Like-named read-outs stand apart in the source and are kept apart here.
Tests used:
cFos mRNA = cFos mRNA induction in cortex of wild-type mice (quantitative PCR); assay type: in vivo, C57BL/6J male mice; details: one hour after administration
Procedure: Compound administration and brain tissue collection.
Quantification of cFos mRNA induction. Tissue homogenization was performed using TissueLyser system for 96 well plates (Qiagen). First, frozen cortical samples were thawed, removed from RNAlater, and placed into TissueLyser tubes along with Buffer RLT containing 0.5% Reagent DX and one 5 mm TissueLyser metal bead. The TissueLyser tubes were loaded into a TissueLyser II tissue homogenizer for 3 rounds of homogenization, with each round lasting 5 minutes at 30 Hz bead-beating frequency. Total RNA was purified from the homogenate using RNeasy 96 Plus kit (Qiagen), RNA concentration and A260/A280 ratio were quantified via the Nanodrop (ThermoFisher), and all samples were normalized to 100 ng/μl concentration. RNA was reverse transcribed into cDNA using the Superscript III First-strand synthesis SuperMix Kit (ThermoFisher). For each sample, 6 μl of RNA (600 ng total) was mixed with 1 μL of Oligo dT and 1 μL of annealing buffer and heated to 65° C. for 5 minutes. Next, 10 μL of 2× First-Strand Reaction Mix and 2 μL of the Enzyme mix were added to achieve a total reaction volume of 20 μL. The samples were heated to 50° C. for 50 minutes then 85° C. for 5 minutes to complete cDNA synthesis.
Quantitative PCR was performed on the cDNA samples using Quantitect Multiplex RT-PCR kit (Qiagen) in a 384-well assay format. Each PCR well contained 2 μL of cDNA (60 ng total), 10 μL of RT-PCR mastermix, 1 μL of cFos FAM Taqman probe (Mm00487425_m1 (FAM) #4351368), 1 μL of GAPDH VIC Taqman probe (Mm99999915-g1 (VIC) #4448486), 0.2 μL of Multiplex RT mix and 5.8 μl of RNase-free water. On the ViiA7 Real-Time PCR system (ThermoFisher), the samples were heated to 95° C. for 15 minutes then cycled between 94° C. for 45 seconds and 60° C. for 45 seconds for 45 cycles. cFos Ct values were exported, normalized to GAPDH Ct values, and converted to relative fold change in expression using the delta-delta Ct relative quantification method. cFos fold changes between compound treatments and vehicle were analyzed by one-way ANOVA, followed by Tukey's post-hoc comparisons.

human Cav1.2 [1] = molecular target: T1, human Cav1.2 (Homo sapiens, UniProt Q13936)
T1 sequence (Q13936 whole entry): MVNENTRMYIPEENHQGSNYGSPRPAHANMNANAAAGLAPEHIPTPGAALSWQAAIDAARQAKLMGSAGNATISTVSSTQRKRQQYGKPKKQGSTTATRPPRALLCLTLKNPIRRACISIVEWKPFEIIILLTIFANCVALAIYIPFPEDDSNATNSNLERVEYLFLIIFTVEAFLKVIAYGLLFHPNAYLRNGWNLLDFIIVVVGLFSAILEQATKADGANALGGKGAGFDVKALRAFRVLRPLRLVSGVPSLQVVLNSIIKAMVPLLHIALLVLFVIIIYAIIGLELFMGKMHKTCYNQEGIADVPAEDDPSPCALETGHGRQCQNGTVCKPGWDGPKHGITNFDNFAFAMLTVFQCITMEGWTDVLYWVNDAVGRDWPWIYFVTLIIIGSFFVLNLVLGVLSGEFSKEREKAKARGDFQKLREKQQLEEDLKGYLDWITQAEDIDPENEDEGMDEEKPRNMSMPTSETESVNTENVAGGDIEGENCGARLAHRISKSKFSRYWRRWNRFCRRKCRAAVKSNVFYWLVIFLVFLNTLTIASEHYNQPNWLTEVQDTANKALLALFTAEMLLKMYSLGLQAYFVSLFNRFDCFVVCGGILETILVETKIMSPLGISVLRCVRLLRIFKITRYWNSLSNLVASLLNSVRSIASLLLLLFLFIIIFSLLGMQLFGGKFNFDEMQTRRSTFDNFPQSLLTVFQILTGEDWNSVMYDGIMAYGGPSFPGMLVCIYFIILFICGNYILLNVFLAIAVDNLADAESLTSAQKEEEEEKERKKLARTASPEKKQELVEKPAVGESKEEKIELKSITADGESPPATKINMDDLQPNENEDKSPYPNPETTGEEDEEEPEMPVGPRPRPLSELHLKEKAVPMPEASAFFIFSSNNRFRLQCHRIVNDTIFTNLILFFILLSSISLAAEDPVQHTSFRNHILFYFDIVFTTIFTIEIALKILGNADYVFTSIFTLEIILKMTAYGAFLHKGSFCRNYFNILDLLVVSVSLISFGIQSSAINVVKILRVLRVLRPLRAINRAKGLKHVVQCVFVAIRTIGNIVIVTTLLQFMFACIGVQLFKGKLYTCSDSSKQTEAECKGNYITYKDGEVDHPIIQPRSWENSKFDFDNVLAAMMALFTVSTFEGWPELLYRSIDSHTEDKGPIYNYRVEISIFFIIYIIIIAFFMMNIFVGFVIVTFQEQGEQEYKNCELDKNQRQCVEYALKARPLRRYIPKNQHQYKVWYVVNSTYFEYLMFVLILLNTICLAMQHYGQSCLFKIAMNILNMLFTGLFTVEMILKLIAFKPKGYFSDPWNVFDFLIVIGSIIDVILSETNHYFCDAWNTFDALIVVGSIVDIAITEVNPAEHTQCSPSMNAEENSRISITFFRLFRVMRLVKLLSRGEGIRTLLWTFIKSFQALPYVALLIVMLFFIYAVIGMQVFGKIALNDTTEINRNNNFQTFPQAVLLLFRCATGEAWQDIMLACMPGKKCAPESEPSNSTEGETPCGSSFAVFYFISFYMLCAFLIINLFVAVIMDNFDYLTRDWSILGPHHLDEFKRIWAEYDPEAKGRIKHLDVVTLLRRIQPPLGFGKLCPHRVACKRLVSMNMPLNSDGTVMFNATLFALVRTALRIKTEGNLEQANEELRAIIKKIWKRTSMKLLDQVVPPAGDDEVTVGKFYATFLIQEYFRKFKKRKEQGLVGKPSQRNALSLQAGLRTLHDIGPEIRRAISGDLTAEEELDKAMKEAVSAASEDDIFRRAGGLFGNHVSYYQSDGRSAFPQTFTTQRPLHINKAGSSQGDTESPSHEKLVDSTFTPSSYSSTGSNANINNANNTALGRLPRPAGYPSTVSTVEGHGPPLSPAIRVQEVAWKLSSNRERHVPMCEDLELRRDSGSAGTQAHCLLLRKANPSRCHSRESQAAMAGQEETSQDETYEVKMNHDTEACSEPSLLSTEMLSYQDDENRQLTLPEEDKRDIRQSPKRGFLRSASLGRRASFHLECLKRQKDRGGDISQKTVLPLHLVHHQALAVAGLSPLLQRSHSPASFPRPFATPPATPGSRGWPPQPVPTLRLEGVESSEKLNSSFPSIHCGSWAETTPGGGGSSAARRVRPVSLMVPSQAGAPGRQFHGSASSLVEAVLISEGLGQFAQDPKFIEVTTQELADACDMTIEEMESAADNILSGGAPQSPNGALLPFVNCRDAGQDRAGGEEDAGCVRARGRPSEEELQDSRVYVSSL
T1 sequence (Q9NY47 19-1001 partner limits assumed): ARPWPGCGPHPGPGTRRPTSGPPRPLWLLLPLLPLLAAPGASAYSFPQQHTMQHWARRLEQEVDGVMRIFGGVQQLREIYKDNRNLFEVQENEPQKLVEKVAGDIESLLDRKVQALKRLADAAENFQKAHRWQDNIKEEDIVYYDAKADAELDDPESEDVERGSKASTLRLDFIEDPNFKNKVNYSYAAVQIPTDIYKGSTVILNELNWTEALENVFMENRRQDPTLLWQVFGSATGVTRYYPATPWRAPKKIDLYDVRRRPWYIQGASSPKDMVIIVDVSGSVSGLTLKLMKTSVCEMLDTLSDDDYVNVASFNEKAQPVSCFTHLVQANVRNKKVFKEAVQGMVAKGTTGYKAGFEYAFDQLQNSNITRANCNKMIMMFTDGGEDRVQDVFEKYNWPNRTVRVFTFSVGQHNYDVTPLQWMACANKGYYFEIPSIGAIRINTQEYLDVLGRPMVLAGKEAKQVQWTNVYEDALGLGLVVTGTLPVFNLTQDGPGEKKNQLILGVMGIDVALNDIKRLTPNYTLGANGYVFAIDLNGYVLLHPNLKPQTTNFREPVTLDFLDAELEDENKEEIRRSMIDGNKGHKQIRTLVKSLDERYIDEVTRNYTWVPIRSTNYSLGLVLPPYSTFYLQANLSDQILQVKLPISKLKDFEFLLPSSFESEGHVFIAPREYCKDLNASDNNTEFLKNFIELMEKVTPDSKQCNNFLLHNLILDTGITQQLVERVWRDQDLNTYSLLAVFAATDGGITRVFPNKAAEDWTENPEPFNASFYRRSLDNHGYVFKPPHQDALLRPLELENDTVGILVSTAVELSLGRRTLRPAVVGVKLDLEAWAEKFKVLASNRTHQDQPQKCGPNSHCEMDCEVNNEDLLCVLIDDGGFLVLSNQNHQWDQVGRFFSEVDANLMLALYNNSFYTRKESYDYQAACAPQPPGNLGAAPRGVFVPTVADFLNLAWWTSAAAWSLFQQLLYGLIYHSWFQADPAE
T1 sequence (Q9NY47 1002-1150 partner limits assumed): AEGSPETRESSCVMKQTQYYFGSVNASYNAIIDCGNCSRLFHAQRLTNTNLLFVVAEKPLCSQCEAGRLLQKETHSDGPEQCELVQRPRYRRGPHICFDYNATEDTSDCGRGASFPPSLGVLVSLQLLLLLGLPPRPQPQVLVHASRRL
T1 sequence (Q08289 whole entry partner): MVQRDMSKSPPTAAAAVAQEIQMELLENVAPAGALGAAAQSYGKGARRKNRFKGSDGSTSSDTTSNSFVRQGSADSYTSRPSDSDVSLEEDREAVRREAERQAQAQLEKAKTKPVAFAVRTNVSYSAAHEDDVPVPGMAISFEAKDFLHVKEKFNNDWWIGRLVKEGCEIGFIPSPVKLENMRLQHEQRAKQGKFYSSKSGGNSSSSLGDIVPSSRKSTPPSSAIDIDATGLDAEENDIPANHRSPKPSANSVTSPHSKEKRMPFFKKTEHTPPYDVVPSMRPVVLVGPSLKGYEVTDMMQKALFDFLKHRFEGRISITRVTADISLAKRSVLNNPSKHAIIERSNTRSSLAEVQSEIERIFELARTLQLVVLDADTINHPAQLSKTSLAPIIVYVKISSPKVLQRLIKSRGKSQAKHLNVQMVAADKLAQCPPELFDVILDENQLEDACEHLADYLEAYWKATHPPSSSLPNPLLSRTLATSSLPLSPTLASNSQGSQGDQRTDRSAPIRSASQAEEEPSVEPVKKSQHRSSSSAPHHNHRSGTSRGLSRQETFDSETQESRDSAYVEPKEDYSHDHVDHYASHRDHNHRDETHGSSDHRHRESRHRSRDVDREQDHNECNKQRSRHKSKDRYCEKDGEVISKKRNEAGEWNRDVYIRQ
Procedure: (§1) 24 hours prior an electrophysiology experiment, doxycycline (1 μg/ml) was added to the growth medium (Table 1), and 25 μM of verapamil was co-applied to prevent calcium influx triggered cell death. Cell confluency should reach 70%-80% right before the experiment.
(§2) To harvest cells (from a T175 cm^2 flask as an example), growth media were removed completely, and the cells were rinsed with 10 mL of D-PBS. D-PBS was aspirated, and 10 mL of Detachin (Genlantis) was added and the plate was placed in a 37° C. incubator for 10 minutes. Detached cells were placed into a 15 mL conical tube and spun at 1000 rpm for 2 minutes. Supernatant was removed, and cells were re-suspended in QPatch complete media (Table 2) to desired cell density of 1.5-3 million cells per QPatch run. Each experimental run uses 1.5 mL of cells.
(§3) The cells suspension was taken to the Sophion QPatch platform that uses whole-cell voltage clamp to measure barium currents conducted through Cav1.2 on single-hole QPlates. […] A dose-response assay protocol was used to determine the maximal fold change of peak inward current (Emax) and potency (EC50) of each compound. The protocol had eight liquid periods. The first liquid period was to stabilize current amplitude, which was monitored using repetitive 200-ms voltage pulses stepping from −80 mV to 0 mV. The second liquid period was to determine baseline current amplitude in the presence of vehicle control, using a single 20-ms voltage pulse stepping from −80 mV to 0 mV. The third through eighth liquid periods were used to ascertain a 6-dose response to compound treatments, also using single 20-ms voltage pulses stepping from −80 mV to 0 mV. The EC50 was generated using the following equation Iconcentration=Ibase+(Ifull−Ibase)*c^n/(XC50^n+c^n), where c is the concentration and n is the Hill coefficient constant. Ifull is the maximal current achievable, and Ibase is 0.

[2] = mouse, in vivo, ip
Procedure: (§4) Compound administration and brain tissue collection. Wild-type C57BL/6J male mice were obtained from Jackson laboratories (Bar Harbor, Me.). The acute, single-dose effects of Cav1.2 activators of the present disclosure were evaluated in male eight-week old mice (n=6 mice per compound). Each compound was dissolved in 10% PEG300, 10% Solutol, 10% Cremophore EL, and 70% Phosphate Buffered Saline and administered intraperitoneal (i.p.) at a concentration of 1 mg/kg up to 30 mg/kg depending on the compound. Animals were euthanized one hour after compound administration via exsanguination under deep anesthesia. Blood was collected in EDTA tubes for downstream analysis of drug levels. Brains were rapidly removed from the skull, and the cerebral cortex and cerebellum were regionally dissected. Cerebellar samples were snap frozen in liquid nitrogen to assess compound exposure.
(§5) Quantification of compound exposure. Cerebellar tissue samples were homogenized in 4 mL of 20% acetonitrile and 80% Phosphate buffered saline for every 1 g of tissue (5× dilution). Tissue was homogenized using either of the following three methods: hand held probe system, TissueLyser system with 5 mm steel bead at a frequency of 30 s^−1 for 4 min, or OMNI Bead Ruptor Elite homogenizer for 30 seconds to 1 minute depending on tissue type. Tissue samples were added to a 96-well plate (12.5 μL sample) and processed for quantification by mass spectrometry.

human Cav1.2 [3] = molecular target: T1, human Cav1.2; assay: Sophion QPatch whole-cell voltage clamp dose-response assay, Cav1.2-HEK293(AUX) cell line (barium currents); details: for QPatch Emax: maximal fold change of peak inward current; for EC50: QPatch EC50, 6-point dose response, 20-ms pulses from −80 mV to 0 mV, n = 1 unless marked (* n = 2, # n = 3)
Procedure: as §1, §2, §3

human Cav1.2 [4] = molecular target: T1, human Cav1.2; assay: QPatch channel biophysics assay (current-voltage relationship, V1/2, tau of inactivation), Cav1.2-HEK293(AUX) cell line; assay type: cell-based; parameters: expressed in transfected cells; host or cells: Flp-In 293 T-Rex (HEK293), clone 2-19B, stably transfected with pCMV6-entry-CACNA1C and pcDNA5H/FRT-TO-CACNA2D2-FCS-P2A-CACNB2; details: shift of half-way channel activation voltage (V1/2)
Procedure: Clonal isolation was achieved under Neomycin selection.
Each experimental run uses 1.5 mL of cells.
The protocol had eight liquid periods. […] The protocol had four liquid periods.

[5] = Compound exposure in wild-type mice (cerebellum and blood, mass spectrometry); details: male, C57BL/6J, mouse, brain (cerebellum) and whole blood, ip
Procedure: as §4, §5

Brain:blood ratio [2]	Kp at 1 h [5]	SMILES	% ↑cFOS mRNA cortex (3 mg/kg ip) (cFos mRNA) [%]	% ↑cFOS mRNA cortex (10 mg/kg ip) (cFos mRNA; 10 mg/kg ip) [%]	EC50 (human Cav1.2 [1]) [nM]	QPatch Emax (human Cav1.2 [3])	Biophysics voltage shift (human Cav1.2 [4]) [mV]	EC50 (human Cav1.2 [3]) [nM]
3.4	–	COC(=O)C1=C(C)NC2=C(C(=O)OC2)[C@H]1c1cccc(F)c1C1CC1(F)F (single isomer, unassigned) [Example 2, Methyl (S)-4-(2-((S or R)-2.2-difluorocyclopropyl)-3-fluorophenyl)-2-methyl-5-oxo-1,4,5,7-tetrahydrofuro[3,4-b]pyridine-3-carboxylate]	23	203	170	1.6	−1.9	–
–	2.9	C=C(c1c(F)cc(F)cc1[C@H]1C(C(=O)OC)=C(C)NC2=C1C(=O)OC2)C(F)(F)F (single isomer, unassigned) [Example 19]	138	–	–	1.7	−1.8	12
–	0.6	C=C(c1c(F)cccc1[C@H]1C(C(=O)OC)=C(C)NC2=C1C(=O)OC2)C(F)(F)F [Example 16, (S)-methyl 4-(3-fluoro-2-(3,3,3-trifluoroprop-1-en-2-yl)phenyl)-2-methyl-5-oxo-1,4,5,7-tetrahydrofuro[3,4-b]pyridine-3-carboxylate]	121	–	–	1.5	−3.3	4

— patent US11453679B2, “Methyl 2-methyl-5-oxo-1,4,5,7-tetradhydrofuro[3,4-b]pyridine-3-carboxylate compounds as Cav1.2 activators” (Novartis AG, priority 2020, dated 2022)
